Key:
Assay type in all cases: ADME
[1] = The drug is tested on the gut metagenome community of T-05 with ENA study accession number: PRJEB31790 for biotransformation under microaerobic condition. The drug concentrations were measured over 7 timepoints collected between 0 and 12 hours of incubation by liquid-chromatography-coupled mass spectrometry (LC–MS); set-up: dose 5 uM, timepoint 0, 0.75, 1.5, 3, 6, 9, 12 hours; details: 5 µM
[2] = The drug is tested on the gut metagenome community of P-04 with ENA study accession number: PRJEB31790 for biotransformation under anaerobic condition. The drug concentrations were measured over 7 timepoints collected between 0 and 12 hours of incubation by liquid-chromatography-coupled mass spectrometry (LC–MS); set-up: dose 5 uM, timepoint 0, 0.75, 1.5, 3, 6, 9, 12 hours; details: 5 µM
[3] = The drug is tested on the gut metagenome community of T-03 with ENA study accession number: PRJEB31790 for biotransformation under microaerobic condition. The drug concentrations were measured over 7 timepoints collected between 0 and 12 hours of incubation by liquid-chromatography-coupled mass spectrometry (LC–MS); set-up: dose 5 uM, timepoint 0, 0.75, 1.5, 3, 6, 9, 12 hours; details: 5 µM
[4] = The drug is tested on Lactobacillus ruminis strain: ATCC25644 for biotransformation under microaerobic condition. The drug concentrations were measured over 6 timepoints collected between 0 and 12 hours of incubation by liquid-chromatography-coupled mass spectrometry (LC–MS); set-up: dose 5 uM, timepoint 0, 1.5, 3, 6, 9, 12 hours; details: ligilactobacillus ruminis, 5 µM
[5] = The drug is tested on Roseburia intestinalis strain: DSM14610 for biotransformation under anaerobic condition. The drug concentrations were measured over 6 timepoints collected between 0 and 12 hours of incubation by liquid-chromatography-coupled mass spectrometry (LC–MS); set-up: dose 5 uM, timepoint 0, 1.5, 3, 6, 9, 12 hours; details: 5 µM
[6] = The drug is tested on the gut metagenome community of A-06 with ENA study accession number: PRJEB31790 for biotransformation under anaerobic condition. The drug concentrations were measured over 7 timepoints collected between 0 and 12 hours of incubation by liquid-chromatography-coupled mass spectrometry (LC–MS); set-up: dose 5 uM, timepoint 0, 0.75, 1.5, 3, 6, 9, 12 hours; details: 5 µM
[7] = The drug is tested on Eubacterium eligens strain: DSM3376 for biotransformation under anaerobic condition. The drug concentrations were measured over 6 timepoints collected between 0 and 12 hours of incubation by liquid-chromatography-coupled mass spectrometry (LC–MS); set-up: dose 5 uM, timepoint 0, 1.5, 3, 6, 9, 12 hours; details: lachnospira eligens, 5 µM
[8] = The drug is tested on Streptococcus anginosus strain: DSM20563 for biotransformation under microaerobic condition. The drug concentrations were measured over 6 timepoints collected between 0 and 12 hours of incubation by liquid-chromatography-coupled mass spectrometry (LC–MS); set-up: dose 5 uM, timepoint 0, 1.5, 3, 6, 9, 12 hours; details: 5 µM
[9] = The drug is tested on Streptococcus mitis strain: DSM12643 for biotransformation under anaerobic condition. The drug concentrations were measured over 6 timepoints collected between 0 and 12 hours of incubation by liquid-chromatography-coupled mass spectrometry (LC–MS); set-up: dose 5 uM, timepoint 0, 1.5, 3, 6, 9, 12 hours; details: 5 µM
[10] = The drug is tested on Enterococcus faecalis strain: ATCC29212 for biotransformation under anaerobic condition. The drug concentrations were measured over 6 timepoints collected between 0 and 12 hours of incubation by liquid-chromatography-coupled mass spectrometry (LC–MS); set-up: dose 5 uM, timepoint 0, 1.5, 3, 6, 9, 12 hours; details: 5 µM
[11] = The drug is tested on Clostridium scindens strain: DSM5676 for biotransformation under anaerobic condition. The drug concentrations were measured over 6 timepoints collected between 0 and 12 hours of incubation by liquid-chromatography-coupled mass spectrometry (LC–MS); set-up: dose 5 uM, timepoint 0, 1.5, 3, 6, 9, 12 hours; details: 5 µM
[12] = The drug is tested on Eubacterium hallii strain: DSM3353 for biotransformation under anaerobic condition. The drug concentrations were measured over 6 timepoints collected between 0 and 12 hours of incubation by liquid-chromatography-coupled mass spectrometry (LC–MS); set-up: dose 5 uM, timepoint 0, 1.5, 3, 6, 9, 12 hours; details: anaerobutyricum hallii, 5 µM
[13] = The drug is tested on Lactobacillus gasseri strain: DSM20243 for biotransformation under anaerobic condition. The drug concentrations were measured over 6 timepoints collected between 0 and 12 hours of incubation by liquid-chromatography-coupled mass spectrometry (LC–MS); set-up: dose 5 uM, timepoint 0, 1.5, 3, 6, 9, 12 hours; details: 5 µM
[14] = The drug is tested on Alloscardovia omnicolens strain: DSM21503 for biotransformation under anaerobic condition. The drug concentrations were measured over 6 timepoints collected between 0 and 12 hours of incubation by liquid-chromatography-coupled mass spectrometry (LC–MS); set-up: dose 5 uM, timepoint 0, 1.5, 3, 6, 9, 12 hours; details: 5 µM
[15] = The drug is tested on Lactobacillus reuteri strain: DSM20016 for biotransformation under microaerobic condition. The drug concentrations were measured over 6 timepoints collected between 0 and 12 hours of incubation by liquid-chromatography-coupled mass spectrometry (LC–MS); set-up: dose 5 uM, timepoint 0, 1.5, 3, 6, 9, 12 hours; details: limosilactobacillus reuteri, 5 µM
[16] = The drug is tested on Faecalibacterium prausnitzii strain: DSM17677 for biotransformation under anaerobic condition. The drug concentrations were measured over 6 timepoints collected between 0 and 12 hours of incubation by liquid-chromatography-coupled mass spectrometry (LC–MS); set-up: dose 5 uM, timepoint 0, 1.5, 3, 6, 9, 12 hours; details: faecalibacterium duncaniae, 5 µM
[17] = The drug is tested on the gut metagenome community of P-02 with ENA study accession number: PRJEB31790 for biotransformation under anaerobic condition. The drug concentrations were measured over 7 timepoints collected between 0 and 12 hours of incubation by liquid-chromatography-coupled mass spectrometry (LC–MS); set-up: dose 5 uM, timepoint 0, 0.75, 1.5, 3, 6, 9, 12 hours; details: 5 µM
[18] = The drug is tested on the gut metagenome community of A-06 with ENA study accession number: PRJEB31790 for biotransformation under microaerobic condition. The drug concentrations were measured over 7 timepoints collected between 0 and 12 hours of incubation by liquid-chromatography-coupled mass spectrometry (LC–MS); set-up: dose 5 uM, timepoint 0, 0.75, 1.5, 3, 6, 9, 12 hours; details: 5 µM
[19] = The drug is tested on Bacteroides xylanisolvens strain: HM 722 for biotransformation under anaerobic condition. The drug concentrations were measured over 6 timepoints collected between 0 and 12 hours of incubation by liquid-chromatography-coupled mass spectrometry (LC–MS); set-up: dose 5 uM, timepoint 0, 1.5, 3, 6, 9, 12 hours; details: 5 µM
[20] = The drug is tested on Blautia hansenii strain: DSM20583 for biotransformation under anaerobic condition. The drug concentrations were measured over 6 timepoints collected between 0 and 12 hours of incubation by liquid-chromatography-coupled mass spectrometry (LC–MS); set-up: dose 5 uM, timepoint 0, 1.5, 3, 6, 9, 12 hours; details: 5 µM
[21] = The drug is tested on Actinomyces naeslundi strain: DSM43013 for biotransformation under microaerobic condition. The drug concentrations were measured over 6 timepoints collected between 0 and 12 hours of incubation by liquid-chromatography-coupled mass spectrometry (LC–MS); set-up: dose 5 uM, timepoint 0, 1.5, 3, 6, 9, 12 hours; details: actinomyces naeslundii, 5 µM
[22] = The drug is tested on Bacteroides thetaiotaomicron strain: DSM2079 for biotransformation under anaerobic condition. The drug concentrations were measured over 6 timepoints collected between 0 and 12 hours of incubation by liquid-chromatography-coupled mass spectrometry (LC–MS); set-up: dose 5 uM, timepoint 0, 1.5, 3, 6, 9, 12 hours; details: 5 µM
[23] = The drug is tested on the gut metagenome community of P-02 with ENA study accession number: PRJEB31790 for biotransformation under microaerobic condition. The drug concentrations were measured over 7 timepoints collected between 0 and 12 hours of incubation by liquid-chromatography-coupled mass spectrometry (LC–MS); set-up: dose 5 uM, timepoint 0, 0.75, 1.5, 3, 6, 9, 12 hours; details: 5 µM
[24] = The drug is tested on Capnocytophaga ochracea strain: DSM7271 for biotransformation under microaerobic condition. The drug concentrations were measured over 6 timepoints collected between 0 and 12 hours of incubation by liquid-chromatography-coupled mass spectrometry (LC–MS); set-up: dose 5 uM, timepoint 0, 1.5, 3, 6, 9, 12 hours; details: 5 µM
[25] = The drug is tested on Akkermansia muciniphila strain: DSM22959 for biotransformation under anaerobic condition. The drug concentrations were measured over 6 timepoints collected between 0 and 12 hours of incubation by liquid-chromatography-coupled mass spectrometry (LC–MS); set-up: dose 5 uM, timepoint 0, 1.5, 3, 6, 9, 12 hours; details: 5 µM
[26] = The drug is tested on the gut metagenome community of T-02 with ENA study accession number: PRJEB31790 for biotransformation under anaerobic condition. The drug concentrations were measured over 7 timepoints collected between 0 and 12 hours of incubation by liquid-chromatography-coupled mass spectrometry (LC–MS); set-up: dose 5 uM, timepoint 0, 0.75, 1.5, 3, 6, 9, 12 hours; details: 5 µM

SMILES | Bacterial Biotransformation [1] | Bacterial Biotransformation [2] | Bacterial Biotransformation [3] | Bacterial Biotransformation [4] | Bacterial Biotransformation [5] | Bacterial Biotransformation [6] | Bacterial Biotransformation [7] | Bacterial Biotransformation [8] | Bacterial Biotransformation [9] | Bacterial Biotransformation [10] | Bacterial Biotransformation [11] | Bacterial Biotransformation [12] | Bacterial Biotransformation [13] | Bacterial Biotransformation [14] | Bacterial Biotransformation [15] | Bacterial Biotransformation [16] | Bacterial Biotransformation [17] | Bacterial Biotransformation [18] | Bacterial Biotransformation [19] | Bacterial Biotransformation [20] | also measured
CCC(C)(C)C(=O)O[C@H]1C[C@@H](C)C=C2C=C[C@H](C)[C@H](CC[C@@H]3C[C@@H](O)CC(=O)O3)[C@H]21 [SIMVASTATIN] | Compound NOT metabolized | Compound NOT metabolized | Compound NOT metabolized | Compound NOT metabolized | Compound NOT metabolized | Compound NOT metabolized | Compound NOT metabolized | Compound NOT metabolized | Compound NOT metabolized | Compound NOT metabolized | Compound metabolized | Compound NOT metabolized | Compound NOT metabolized | Compound NOT metabolized | Compound NOT metabolized | Compound NOT metabolized | Compound NOT metabolized | Compound NOT metabolized | Compound NOT metabolized | Compound NOT metabolized | Bacterial Biotransformation [21]: Compound NOT metabolized; Bacterial Biotransformation [22]: Compound metabolized; Bacterial Biotransformation [23]: Compound NOT metabolized; Bacterial Biotransformation [24]: Compound NOT metabolized; Bacterial Biotransformation [25]: Compound NOT metabolized; Bacterial Biotransformation [26]: Compound NOT metabolized
CO[C@H]1C[C@@H]2CC[C@@H](C)[C@@](O)(O2)C(=O)C(=O)N2CCCC[C@H]2C(=O)O[C@H]([C@H](C)C[C@@H]2CC[C@@H](O)[C@H](OC)C2)CC(=O)[C@H](C)/C=C(\C)[C@@H](O)[C@@H](OC)C(=O)[C@H](C)C[C@H](C)/C=C/C=C/C=C/1C [SIROLIMUS] | Compound NOT metabolized | Compound metabolized | Compound NOT metabolized | Compound NOT metabolized | Compound metabolized | Compound metabolized | Compound metabolized | Compound NOT metabolized | Compound NOT metabolized | Compound metabolized | Compound metabolized | Compound metabolized | Compound metabolized | Compound metabolized | Compound NOT metabolized | Compound NOT metabolized | Compound NOT metabolized | Compound metabolized | Compound NOT metabolized | Compound metabolized | Bacterial Biotransformation [21]: Compound NOT metabolized; Bacterial Biotransformation [22]: Compound NOT metabolized; Bacterial Biotransformation [23]: Compound NOT metabolized; Bacterial Biotransformation [24]: Compound NOT metabolized; Bacterial Biotransformation [25]: Compound NOT metabolized; Bacterial Biotransformation [26]: Compound metabolized
C=CC[C@@H]1/C=C(\C)C[C@H](C)C[C@H](OC)[C@H]2O[C@@](O)(C(=O)C(=O)N3CCCC[C@H]3C(=O)O[C@H](/C(C)=C/[C@@H]3CC[C@@H](O)[C@H](OC)C3)[C@H](C)[C@@H](O)CC1=O)[C@H](C)C[C@@H]2OC.O [TACROLIMUS] | Compound metabolized | Compound NOT metabolized | Compound NOT metabolized | Compound NOT metabolized | Compound metabolized | Compound metabolized | Compound NOT metabolized | Compound NOT metabolized | Compound NOT metabolized | Compound metabolized | Compound metabolized | Compound metabolized | Compound NOT metabolized | Compound NOT metabolized | Compound NOT metabolized | Compound NOT metabolized | Compound NOT metabolized | Compound metabolized | Compound NOT metabolized | Compound metabolized | Bacterial Biotransformation [21]: Compound NOT metabolized; Bacterial Biotransformation [22]: Compound NOT metabolized; Bacterial Biotransformation [23]: Compound NOT metabolized; Bacterial Biotransformation [24]: Compound NOT metabolized; Bacterial Biotransformation [25]: Compound NOT metabolized; Bacterial Biotransformation [26]: Compound metabolized
